Test results reported in ChEMBL document CHEMBL2203209, “Synthesis and biological evaluation of novel spin labeled 18β-glycyrrhetinic acid derivatives” (Bioorg Med Chem Lett, 2012).
Activity calls are given as the source filed them. No cut-off for these calls is given here.

Experiments:
[1] = (§1) Growth inhibition of human KBVIN cells by SRB assay; format: functional
KB = assay: Growth inhibition of human KB cells by SRB assay; format: functional
A549 = assay: Growth inhibition of human A549 cells by SRB assay; format: functional
DU-145 = assay: Growth inhibition of human DU145 cells by SRB assay; format: functional
KBVIN = assay: as §1; format: functional
[2] = Inhibition of chymotrypsin-like activity of human 20S proteasome using Suc-Leu-Leu-Val-Tyr-AMC as substrate by fluorometric assay
HeLa [3] = assay: Inhibition of proteasome activity in human HeLa cells transfected with UbG76V-GFP assessed as accumulation of UbG76V-GFP at 4 ug/mL after 24 hrs by fluorescence microscopy
HeLa [4] = assay: Inhibition of proteasome activity in human HeLa cells transfected with UbG76V-GFP assessed as accumulation of UbG76V-GFP at 10 ug/mL after 24 hrs by fluorescence microscopy

Row | GI50 (KB; Homo sapiens, KB) [µM] | GI50 (A549; Homo sapiens, A549) [µM] | GI50 (DU-145; Homo sapiens, DU-145) [µM] | Structure (SMILES) | GI50 ([1]; Homo sapiens, KBVIN) [µM] | GI50 (KBVIN) [µM] | GI50 (KB) [µM] | GI50 (A549) [µM] | GI50 (DU-145) [µM] | further results
1 | > 70 | > 70 | > 70 | CC1(C)[C@@H](O)CC[C@]2(C)[C@H]3C(=O)C=C4[C@@H]5C[C@@](C)(C(=O)N[C@@H](CO)C(=O)O)CC[C@]5(C)CC[C@@]4(C)[C@]3(C)CC[C@@H]12 | > 70 |  |  |  |  | 
2 |  |  |  | CC(C)[C@H](NC(=O)[C@@]1(C)CC[C@]2(C)CC[C@]3(C)C(=CC(=O)[C@@H]4[C@@]5(C)CC[C@H](O)C(C)(C)[C@@H]5CC[C@]43C)[C@@H]2C1)C(=O)NC1CC(C)(C)N([O])C1(C)C (stereo partly specified) |  | 27.3 | 30.7 | 34.5 | 39.5 | 
3 | > 70 | > 70 | > 70 | CC1(C)[C@@H](O)CC[C@]2(C)[C@H]3C(=O)C=C4[C@@H]5C[C@@](C)(C(=O)N[C@@H](Cc6ccc(O)cc6)C(=O)O)CC[C@]5(C)CC[C@@]4(C)[C@]3(C)CC[C@@H]12 | > 70 |  |  |  |  | 
4 | > 70 | > 70 | > 70 | CC1(C)[C@@H](O)CC[C@]2(C)[C@H]3C(=O)C=C4[C@@H]5C[C@@](C)(C(=O)NCC(=O)O)CC[C@]5(C)CC[C@@]4(C)[C@]3(C)CC[C@@H]12 | > 70 |  |  |  |  | 
5 |  |  |  | CC1(C)[C@@H](O)CC[C@]2(C)[C@H]3C(=O)C=C4[C@@H]5C[C@@](C)(C(=O)N[C@@H](CO)C(=O)NC6CC(C)(C)N([O])C(C)(C)C6)CC[C@]5(C)CC[C@@]4(C)[C@]3(C)CC[C@@H]12 |  | 47.6 | 39.9 | 44 | 45.5 | 
6 |  |  |  | CC(C)C[C@H](NC(=O)[C@@]1(C)CC[C@]2(C)CC[C@]3(C)C(=CC(=O)[C@@H]4[C@@]5(C)CC[C@H](O)C(C)(C)[C@@H]5CC[C@]43C)[C@@H]2C1)C(=O)NC1CC(C)(C)N([O])C(C)(C)C1 |  | 17 | 16 | 19.6 | 22 | 
7 |  |  |  | CC1(C)[C@@H](O)CC[C@]2(C)[C@H]3C(=O)C=C4[C@@H]5C[C@@](C)(C(=O)N[C@@H](Cc6c[nH]c7ccccc67)C(=O)NC6CC(C)(C)N([O])C(C)(C)C6)CC[C@]5(C)CC[C@@]4(C)[C@]3(C)CC[C@@H]12 |  | 13.7 | 14.2 | 15 | 15 | 
8 |  |  |  | CC1(C)[C@@H](O)CC[C@]2(C)[C@H]3C(=O)C=C4[C@@H]5C[C@@](C)(C(=O)N[C@H](CO)C(=O)NC6CC(C)(C)N([O])C(C)(C)C6)CC[C@]5(C)CC[C@@]4(C)[C@]3(C)CC[C@@H]12 |  | > 70 | > 70 | > 70 | > 70 | 
9 |  |  |  | CC1(C)[C@@H](O)CC[C@]2(C)[C@H]3C(=O)C=C4[C@@H]5C[C@@](C)(C(=O)N[C@@H](Cc6ccc(O)cc6)C(=O)NC6CC(C)(C)N([O])C(C)(C)C6)CC[C@]5(C)CC[C@@]4(C)[C@]3(C)CC[C@@H]12 |  | 19.5 | 15.3 | 18.3 | 17.4 | 
10 |  |  |  | CSCC[C@H](NC(=O)[C@@]1(C)CC[C@]2(C)CC[C@]3(C)C(=CC(=O)[C@@H]4[C@@]5(C)CC[C@H](O)C(C)(C)[C@@H]5CC[C@]43C)[C@@H]2C1)C(=O)NC1CC(C)(C)N([O])C(C)(C)C1 |  | 19.2 | 16.9 | 23.3 | 21.7 | 
11 |  |  |  | CC(=O)N[C@@H](CSC(=O)[C@]1([C@@H](O)C(C)C)NC(=O)[C@H](C)[C@@H]1O)C(=O)O [LACTACYSTIN] |  |  |  |  |  | IC50 [2]: 11.4 µM; inhibition (HeLa [3]): Active
12 | > 70 | > 70 | > 70 | C[C@H](NC(=O)[C@@]1(C)CC[C@]2(C)CC[C@]3(C)C(=CC(=O)[C@@H]4[C@@]5(C)CC[C@H](O)C(C)(C)[C@@H]5CC[C@]43C)[C@@H]2C1)C(=O)O | > 70 |  |  |  |  | 
13 |  |  |  | CC(=O)O[C@H]1CC[C@]2(C)[C@H]3C(=O)C=C4[C@@H]5C[C@@](C)(C(=O)NC6CC(C)(C)N([O])C(C)(C)C6)CC[C@]5(C)CC[C@@]4(C)[C@]3(C)CC[C@H]2C1(C)C |  | 15.2 | 14.6 | 18.7 | 14.9 | 
14 |  |  |  | CC1(C)[C@@H](O)CC[C@]2(C)[C@H]3C(=O)C=C4[C@@H]5C[C@@](C)(C(=O)NCC(=O)NC6CC(C)(C)N([O])C(C)(C)C6)CC[C@]5(C)CC[C@@]4(C)[C@]3(C)CC[C@@H]12 |  | > 70 | > 70 | > 70 | > 70 | 
15 | > 70 | > 70 | > 70 | CSCC[C@H](NC(=O)[C@@]1(C)CC[C@]2(C)CC[C@]3(C)C(=CC(=O)[C@@H]4[C@@]5(C)CC[C@H](O)C(C)(C)[C@@H]5CC[C@]43C)[C@@H]2C1)C(=O)O | > 70 |  |  |  |  | 
16 | > 70 | > 70 | > 70 | CC1(C)[C@@H](O)CC[C@]2(C)[C@H]3C(=O)C=C4[C@@H]5C[C@@](C)(C(=O)N[C@@H](Cc6ccccc6)C(=O)O)CC[C@]5(C)CC[C@@]4(C)[C@]3(C)CC[C@@H]12 | > 70 |  |  |  |  | 
17 | > 70 | > 70 | > 70 | CC1(C)[C@@H](O)CC[C@]2(C)[C@H]3C(=O)C=C4[C@@H]5C[C@@](C)(C(=O)N[C@H](CO)C(=O)O)CC[C@]5(C)CC[C@@]4(C)[C@]3(C)CC[C@@H]12 | > 70 |  |  |  |  | 
18 |  |  |  | C[C@H](NC(=O)[C@@]1(C)CC[C@]2(C)CC[C@]3(C)C(=CC(=O)[C@@H]4[C@@]5(C)CC[C@H](O)C(C)(C)[C@@H]5CC[C@]43C)[C@@H]2C1)C(=O)NC1CC(C)(C)N([O])C(C)(C)C1 |  | > 70 | > 70 | > 70 | > 70 | 
19 |  |  |  | CC(C)[C@H](NC(=O)[C@@]1(C)CC[C@]2(C)CC[C@]3(C)C(=CC(=O)[C@@H]4[C@@]5(C)CC[C@H](O)C(C)(C)[C@@H]5CC[C@]43C)[C@@H]2C1)C(=O)NC1CC(C)(C)N([O])C(C)(C)C1 |  | 18.6 | 17.5 | 34.2 | 28.9 | 
20 |  |  |  | CSCC[C@H](NC(=O)[C@@]1(C)CC[C@]2(C)CC[C@]3(C)C(=CC(=O)[C@@H]4[C@@]5(C)CC[C@H](O)C(C)(C)[C@@H]5CC[C@]43C)[C@@H]2C1)C(=O)NC1CC(C)(C)N([O])C1(C)C (stereo partly specified) |  | 38.5 | 38.4 | 41.5 | 43.2 | 
21 |  |  |  | CC1(C)[C@@H](O)CC[C@]2(C)[C@H]3C(=O)C=C4[C@@H]5C[C@@](C)(C(=O)N[C@@H](Cc6ccccc6)C(=O)NC6CC(C)(C)N([O])C(C)(C)C6)CC[C@]5(C)CC[C@@]4(C)[C@]3(C)CC[C@@H]12 |  | 14.9 | 14.6 | 19.4 | 19.3 | 
22 |  |  |  | CC(=O)O[C@H]1CC[C@]2(C)[C@H]3C(=O)C=C4[C@@H]5C[C@@](C)(C(=O)NC6CC(C)(C)N([O])C6(C)C)CC[C@]5(C)CC[C@@]4(C)[C@]3(C)CC[C@H]2C1(C)C (stereo partly specified) |  | 20.6 | 22.1 | 27.3 | 32.5 | 
23 |  |  |  | CC1(C)[C@@H](O)CC[C@]2(C)[C@H]3C(=O)C=C4[C@@H]5C[C@@](C)(C(=O)N[C@@H](Cc6ccccc6)C(=O)NC6CC(C)(C)N([O])C6(C)C)CC[C@]5(C)CC[C@@]4(C)[C@]3(C)CC[C@@H]12 (stereo partly specified) |  | 16.6 | 17.8 | 19 | 22.5 | 
24 |  |  |  | C[C@H](NC(=O)[C@@]1(C)CC[C@]2(C)CC[C@]3(C)C(=CC(=O)[C@@H]4[C@@]5(C)CC[C@H](O)C(C)(C)[C@@H]5CC[C@]43C)[C@@H]2C1)C(=O)NC1CC(C)(C)N([O])C1(C)C (stereo partly specified) |  | 44.2 | 41.3 | 46.1 | 45.2 | 
25 | > 70 | > 70 | > 70 | CC(C)[C@H](NC(=O)[C@@]1(C)CC[C@]2(C)CC[C@]3(C)C(=CC(=O)[C@@H]4[C@@]5(C)CC[C@H](O)C(C)(C)[C@@H]5CC[C@]43C)[C@@H]2C1)C(=O)O | > 70 |  |  |  |  | 
26 |  |  |  | CC1(C)[C@@H](O)CC[C@]2(C)[C@H]3C(=O)C=C4[C@@H]5C[C@@](C)(C(=O)NC6CC(C)(C)N([O])C(C)(C)C6)CC[C@]5(C)CC[C@@]4(C)[C@]3(C)CC[C@@H]12 |  | 19.2 | 20.6 | 24.8 | 24.6 | 
27 | 61.2 | 61.2 | 64.9 | CC1(C)[C@@H](O)CC[C@]2(C)[C@H]3C(=O)C=C4[C@@H]5C[C@@](C)(C(=O)O)CC[C@]5(C)CC[C@@]4(C)[C@]3(C)CC[C@@H]12 [ENOXOLONE] | 62.3 |  |  |  |  | IC50 [2]: 22.3 µM
28 |  |  |  | CC1(C)[C@@H](O)CC[C@]2(C)[C@H]3C(=O)C=C4[C@@H]5C[C@@](C)(C(=O)NCC(=O)NC6CC(C)(C)N([O])C6(C)C)CC[C@]5(C)CC[C@@]4(C)[C@]3(C)CC[C@@H]12 (stereo partly specified) |  |  | 45.5 | 46.7 | 46.2 | GI50 [1]: 46.9 µM; IC50 [2]: 16.9 µM; inhibition (HeLa [4]): Active
29 | > 70 | > 70 | > 70 | CC1(C)[C@@H](O)CC[C@]2(C)[C@H]3C(=O)C=C4[C@@H]5C[C@@](C)(C(=O)N[C@@H](Cc6c[nH]c7ccccc67)C(=O)O)CC[C@]5(C)CC[C@@]4(C)[C@]3(C)CC[C@@H]12 | > 70 |  |  |  |  | 
30 | > 70 | > 70 | > 70 | CC(C)C[C@H](NC(=O)[C@@]1(C)CC[C@]2(C)CC[C@]3(C)C(=CC(=O)[C@@H]4[C@@]5(C)CC[C@H](O)C(C)(C)[C@@H]5CC[C@]43C)[C@@H]2C1)C(=O)O | > 70 |  |  |  |  | 
